This data set deals with alternative splicing of a specific gene (GFP/RFP reporter). The data set is described as follows: Compound screen with GFP/RFP alternative splicing reporter. The class given is cell-based. An excerpt:
Strategy of a method for testing whether or not a compound to be tested affects an alternative splicing of a specific gene in a mammalian multicelluar organism is shown in FIG. 14.
The reporter proteins used for the method are GFP and FRP.

[1] abbreviates: cell count after compound at final conc., Ctrl number of cells 4303-5627.
The mark [2] stands for this setting: reporter ratio relative to control = 1, final conc. per compound (μM, 50 ng/mL).

Counter-ions that a name gives are not always drawn. Like-named read-outs stand apart in the source and are kept apart here.

`N[C@@H]1C[C@H]1c1ccccc1` (racemic) [Tranylcypromine]: the “ratio in column 11 (head not shown in this continuation table; table sorted by it in descending order; apparently GFP/RFP reporter ratio)” value worked out at 0.7492.
Compound `CC(C)(C)NCC(O)c1ccccc1Cl` (racemic) [Tulobuterol] gave a Number of cells (50 ng/mL) of 3489.
With `Nc1ncnc2c1ncn2[C@@H]1O[C@H](CO)[C@@H](O)[C@@H]1O` (racemic) [Vidarabine], the Number of cells (50 ng/mL) was 1482.
Regarding `CC[C@@]1(O)C(=O)OCc2c1cc1n(c2=O)Cc2cc3cc(O)ccc3nc2-1` [10-hydroxycamptothecin], the “GFP/RFP (Ctrl = 1)” value is recorded as 3.114. Under setting [1], this compound registered a Number of cells of 541.
Consider `CC[C@@]1(O)C[C@H](O[C@H]2C[C@H](N(C)C)[C@H](O[C@H]3C[C@H](O)[C@H](O[C@H]4CCC(=O)[C@H](C)O4)[C@H](C)O3)[C@H](C)O2)c2c(cc3c(c2O)C(=O)c2c(O)cccc2C3=O)[C@H]1C(=O)OC` [Aclarubicin], for which the Number of cells under setting [1] is listed as 10.
In the case of `CCCCC[C@H](O)/C=C/[C@H]1[C@H](O)CC(=O)[C@@H]1CCCCCCC(=O)O` [Alprostadil], the Number of cells (50 ng/mL) was found to be 3505.
Where the note is “50 ng/mL”, `C[C@H]1[C@H](OC(=O)CCC(=O)O)O[C@@H]2O[C@@]3(C)CC[C@H]4[C@H](C)CC[C@@H]1[C@@]24OO3` [Artesunate] had a Number of cells of 246.
On the same count and under the same terms, in the case of `COc1ccc(CCN2CCC(Nc3nc4ccccc4n3Cc3ccc(F)cc3)CC2)cc1` [Astemizole] it was 38.
With `CC(=O)OC[C@H]1O[C@@H]([S-])[C@H](OC(C)=O)[C@@H](OC(C)=O)[C@@H]1OC(C)=O.CCP(CC)CC.[Au+]` [Auranofin], the “GFP/RFP (Ctrl = 1)” value worked out at 4.915. This compound showed a Number of cells under setting [1] of 1.
Take `Cc1cc2c(OCC(CNC(C)(C)C)OC(=O)c3ccccc3)cccc2[nH]1.O=C(O)CC(=O)O` (stereo not drawn) [Bopindolol malonate]: the Number of cells is listed as 3625. Also, the “GFP/RFP (Ctrl = 1)” value under setting [2] is 1.265.
Take `CCCC(=O)OCC[N+](C)(C)C.[Cl-]` [Butyrylcholine Cl]: the “count per well with compound (column 9, head not shown; probably cell number; c10 = plate reference)” value worked out at 4016 and the “reporter fluorescence ratio relative to control (last column of Table 4, head not shown; table sorted by this value)” value amounted to 1.016.
Turning to `CC[C@@]1(O)C(=O)OCc2c1cc1n(c2=O)Cc2cc3ccccc3nc2-1` [Camptothecin], under setting [1], the Number of cells amounted to 385.
Under setting [1], `COc1cc(CNC(=O)CCCC/C=C/C(C)C)ccc1O` [Capsaicin] had a Number of cells of 1918.
`C[C@@](Cc1ccc(O)c(O)c1)(NN)C(=O)O` [Carbidopa] returned a Number of cells of 3470.
With `N.N.O=C([O-])C1(C(=O)[O-])CCC1.[Pt+2]` [Carboplatin], the “GFP/RFP (Ctrl = 1)” value is reported as 1.875. In addition, the Number of cells under setting [1] was 1373.
As for `CC1(C)C[C@@H]1C(=O)N/C(=C\CCCCSC[C@H](N)C(=O)O)C(=O)O` [Cilastatin], the “cell count per well (c9; column head not printed in these continuation tables, meaning inferred)” value was found to be 2885.
With `O=P1(N(CCCl)CCCl)NCCCO1` (stereo not drawn) [Cyclophosphamide monohydrate], the “cell count per well (c9; column head not printed in these continuation tables, meaning inferred)” value is 3065.
`COc1cccc2c1C(=O)c1c(O)c3c(c(O)c1C2=O)C[C@@](O)(C(C)=O)C[C@@H]3O[C@H]1C[C@H](N)[C@H](O)[C@H](C)O1` [Daunorubicin HCl] returned a Number of cells (50 ng/mL) of 3.
`CC(CCc1ccc(O)cc1)NCCc1ccc(O)c(O)c1` (stereo not drawn) [Dobutamine HCl] showed a Number of cells under setting [1] of 2991.
`CC(=O)O[C@@]12CO[C@@H]1C[C@H](O)[C@@]1(C)C(=O)[C@H](O)C3=C(C)[C@@H](OC(=O)[C@H](O)[C@@H](NC(=O)OC(C)(C)C)c4ccccc4)C[C@@](O)([C@@H](OC(=O)c4ccccc4)[C@H]21)C3(C)C` [Docetaxil] had a Number of cells of 1194. Moreover, the “GFP/RFP (Ctrl = 1)” value under setting [2] is given as 1.862.
In the case of `COc1cccc2c1C(=O)c1c(O)c3c(c(O)c1C2=O)C[C@@](O)(C(=O)CO)C[C@@H]3O[C@H]1C[C@H](N)[C@H](O)[C@H](C)O1` [Doxorubicin HCl], under “50 ng/mL”, the Number of cells is reported as 18.
With `CNC[C@H](O)c1ccc(O)c(O)c1.O=C(O)C(O)C(O)C(=O)O` [Epinephrine-(+)-tartrate l (−)], the Number of cells stood at 4057. Moreover, under setting [2], the “GFP/RFP (Ctrl = 1)” value was 1.528.
For `COc1cc([C@@H]2c3cc4c(cc3[C@@H](O[C@@H]3O[C@@H]5CO[C@@H](C)O[C@H]5[C@H](O)[C@H]3O)[C@H]3COC(=O)[C@H]23)OCO4)cc(OC)c1O` [Etoposide], the Number of cells (50 ng/mL) is listed as 055.
With `CCOC(=O)C1=C(C)NC(C)=C(C(=O)OC)C1c1cccc(Cl)c1Cl` (stereo not drawn) [Felodipine], the Number of cells (50 ng/mL) stood at 116.
Consider `COc1ccc2c(c1)[nH]c1c(C)nccc12` [Harmine], for which the Number of cells under setting [1] was found to be 537.
Take `CO[C@@]12[C@H](COC(N)=O)C3=C(C(=O)C(C)=C(N)C3=O)N1C[C@@H]1N[C@@H]12` [Mitomycin c]: the “GFP/RFP (Ctrl = 1)” value is 3.767. Under setting [1], this compound came in with a Number of cells of 319.
`Cl.Cl.O=C1c2c(O)ccc(O)c2C(=O)c2c(NCCNCCO)ccc(NCCNCCO)c21` [Mitoxantrone 2HCl] came in with a Number of cells of 31. The “GFP/RFP (Ctrl = 1)” value under setting [2] is recorded as 2.651.
Turning to `COc1c(C)c2c(c(O)c1C/C=C(\C)CCC(=O)O)C(=O)OC2` [Mycophenolic acid], the Number of cells (50 ng/mL) is 1367.
`COC(=O)C1=C(C)NC(C)=C(C(=O)OC)C1c1ccccc1[N+](=O)[O-]` [Nifedipine] yielded a Number of cells (50 ng/mL) of 156.
`NC[C@H](O)c1ccc(O)c(O)c1.O=C(O)C(O)C(O)C(=O)O` [Norepinephrine-(+)-tartrate l (−)] yielded a Number of cells of 4210. For the same compound, the “GFP/RFP (Ctrl = 1)” value under setting [2] was found to be 1.594.
On to `C[C@@H]1[C@H](O)[C@@H](C)/C=C/C=C/CC/C=C/C=C/C=C/C=C/C(O[C@H]2O[C@H](C)[C@@H](O)[C@H](N)[C@@H]2O)CC2O[C@](O)(CC(O)C(O)CCC(O)CC(O)CC(O)CC(=O)O[C@H]1C)CC(O)C2C(=O)O` (stereo partly drawn) [Nystatin], for which the “GFP/RFP (Ctrl = 1)” value amounted to 1.253. Under setting [1], this compound came in with a Number of cells of 3293.
For `O=C1[O][Pt]2([NH][C@@H]3CCCC[C@H]3[NH]2)[O]C1=O` [Oxaliplatin], in that order: 2.271 and 825.
In the case of `CC1(C)S[C@@H]2[C@H](NC(=O)COc3ccccc3)C(=O)N2[C@H]1C(=O)[O-].[K+]` [Pencillin v potassium], the “reporter fluorescence ratio, GFP/RFP (c11; column head not printed in these continuation tables, table sorted descending by it)” value is 1.134.
For `N=C(N)c1ccc(OCCCCCOc2ccc(C(=N)N)cc2)cc1` [Pentamidine], the Number of cells (50 ng/mL) turned out to be 2694.
As for `COc1cc2nc(N3CCN(C(=O)c4ccco4)CC3)nc(N)c2cc1OC` [Prazosin HCl], the Number of cells is 2109.
On to `CCC(NC(C)C)C(O)c1ccc(O)c2[nH]c(=O)ccc12` (stereo not drawn) [Procaterol hcl], for which the Number of cells was determined as 4151.
Turning to `CC(C)NCC(O)COc1cccc2ccccc12` (stereo not drawn) [Propranolol], the Number of cells (50 ng/mL) was determined as 2641.
In turn, `CCN(CC)CCCC(C)Nc1c2ccc(Cl)cc2nc2ccc(OC)cc12.Cl.Cl.O.O` (stereo not drawn) [Quinacrine 2HCl dihydrate] displayed a Number of cells of 5. The “GFP/RFP (Ctrl = 1)” value under setting [2] came to 3.153.
Take `CO[C@H]1C[C@@H]2CC[C@@H](C)[C@@](O)(O2)C(=O)C(=O)N2CCCC[C@H]2C(=O)O[C@H]([C@H](C)C[C@@H]2CC[C@@H](O)[C@H](OC)C2)CC(=O)[C@H](C)/C=C(\C)[C@@H](O)[C@@H](OC)C(=O)[C@H](C)C[C@H](C)/C=C/C=C/C=C/1C` [Rapamycin]: the Number of cells under setting [1] stood at 2046.
With `CC1=C(/C=C/C(C)=C/C=C/C(C)=C/C(=O)O)C(C)(C)CCC1` [Retinoic acid], the Number of cells came out at 2697.
With `COc1ccc(C2CNC(=O)C2)cc1OC1CCCC1` (stereo not drawn) [Rolipram], the Number of cells under setting [1] is given as 2878.
Consider `Cl.O=C(O)c1cn(-c2ccc(F)cc2)c2cc(N3CCNCC3)c(F)cc2c1=O` [Satafloxacin HCl], for which the Number of cells is 3105. Besides, the “GFP/RFP (Ctrl = 1)” value under setting [2] was determined as 1.341.
With `C[C@@H]1CN(c2c(F)c(N)c3c(=O)c(C(=O)O)cn(C4CC4)c3c2F)C[C@H](C)N1` [Sparfloxacin], the Number of cells (50 ng/mL) is on record as 3029.
For the compound `Cc1coc2c1C(=O)C(=O)c1c-2ccc2c1CCCC2(C)C` [Tanshinone iia], the Number of cells (50 ng/mL) is listed as 2210.
On to `CC(=O)O[C@H]1C(=O)[C@@]2(C)[C@H]([C@H](OC(=O)c3ccccc3)[C@]3(O)C[C@H](OC(=O)[C@H](O)[C@@H](NC(=O)c4ccccc4)c4ccccc4)C(C)=C1C3(C)C)[C@]1(OC(C)=O)CO[C@@H]1C[C@@H]2O` [Taxol], for which the Number of cells (50 ng/mL) is recorded as 719.
With `O=C1CCC(N2C(=O)c3ccccc3C2=O)C(=O)N1` (stereo not drawn) [Thaldomide], the Number of cells came to 2622. Also, the “GFP/RFP (Ctrl = 1)” value under setting [2] was found to be 1.271.
As to `COc1cc2c(cc1OC)-c1c/c(=N\c3c(C)cc(C)cc3C)n(C)c(=O)n1CC2` [Trequinsin], the Number of cells was 3009.
Turning to `COc1cc(-c2ccc(=O)[nH]n2)ccc1OC(F)F` [Zardaverine], the Number of cells under setting [1] is 2744.
As to Apomorphine r (−), the “GFP/RFP (Ctrl = 1)” value is reported as 1.357. The compound further came in with a Number of cells under setting [1] of 3372.
With Bleomycin sulfate, the “GFP/RFP (Ctrl = 1)” value was 1.477. Under setting [1], the Number of cells was found to be 2702.
The compound Salbutamol sulfate returned a Number of cells of 4053. Under setting [2], the “GFP/RFP (Ctrl = 1)” value came out at 1.295.
